Source: patent publication US20180250393A1, “MANIPULATION OF T CELL AND MAST CELL ACTIVATION BY PIK3IP1” (UNIVERSITY OF PITTSBURGH-OF THE COMMONWEALTH SYSTEM OF …, priority 2017, published 2018)

Test system: Naïve T cells from WT and KO mice
Assay: Th1 differentiation assay with PI3K/Akt pathway inhibitors, IFN-γ expression by flow cytometry
Format: cell-based, mouse
Conditions: Th1 conditions, all concentrations
Protocol: (A) Naïve T cells from WT and KO mice were cultured under Th1 conditions for three days in the presence of PI3K inhibitors (Akti, LY294002 and IC-87114), re-stimulated with PMA/Ionomycin and analyzed for IFNγ and CD25 expression. (B) Quantitation of A. p values were calculated using two-way ANOVA with Sidak's multiple comparisons test. p values are represented with the following symbols: *0.01-0.05, **0.001-0.01, ***<0.001. Data are representative of more than three experiments.
CD4 T cells from spleens and lymph nodes of naïve mice were purified by magnetic separation using the Miltenyi Biotec naïve CD4 T cell isolation kit (Cat#130-104-453). The purity of the final cell population was >90%. […] Cells were then harvested and analyzed by flow cytometry.
In order to determine whether the difference in Th1 polarization was actually due to the absence of PI3K modulation by TrIP, the Th1 differentiation assay was performed on WT and KO T cells with the addition of moderate concentrations of PI3K/Akt pathway inhibitors. […] At the end of culture, cells were re-stimulated with PMA/Ionomycin and evaluated by flow cytometry for IFN-γ expression. […]

## Cc1ccccc1-n1c(Cn2cnc3c(N)ncnc32)nc2cccc(C)c2c1=O [IC-87114]
  relative potency among the three inhibitors for IFN-γ production: most potent inhibitor at all concentrations
